Results: publication PMC3371641 (SAR and QSAR in Environmental Research, 2011)
pIC50: −log10 of the molar value. Read-outs that look alike come from different tables or passages of the source.

Molecular target: T1, cytochrome P450 enzyme 1A2 (CYP1A2) (Homo sapiens, UniProt P05177)
T1 sequence (P05177 2-516): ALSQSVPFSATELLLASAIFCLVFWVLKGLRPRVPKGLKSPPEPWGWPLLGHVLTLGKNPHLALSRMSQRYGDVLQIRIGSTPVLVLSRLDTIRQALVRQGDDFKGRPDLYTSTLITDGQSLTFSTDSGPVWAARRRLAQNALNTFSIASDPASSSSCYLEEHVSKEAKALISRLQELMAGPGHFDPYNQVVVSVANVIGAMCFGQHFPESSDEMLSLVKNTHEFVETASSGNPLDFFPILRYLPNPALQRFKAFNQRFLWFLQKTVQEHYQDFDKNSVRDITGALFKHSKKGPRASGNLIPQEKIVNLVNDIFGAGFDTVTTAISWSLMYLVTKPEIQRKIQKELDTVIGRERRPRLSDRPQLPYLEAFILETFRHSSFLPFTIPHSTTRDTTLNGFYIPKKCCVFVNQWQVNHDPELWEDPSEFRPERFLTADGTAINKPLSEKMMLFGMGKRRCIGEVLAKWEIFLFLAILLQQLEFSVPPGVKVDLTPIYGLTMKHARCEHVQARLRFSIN
Experiment: enzyme inhibition assay, method reported earlier
Assay type: biochemical

| Compound | pIC50 | pIC50 (read-out: EI) |
| --- | --- | --- |
| CCC#Cc1ccc2ccc3cccc4ccc1c2c34 [1EEP, 1-butynylpyrene] | 6.37 |  |
| CC#Cc1ccc2c(ccc3ccccc32)c1 [2MEPHEN, 2-(1-propynyl)phenanthrene] | 6.22 |  |
| C#CCOCc1ccc(-c2ccccc2)cc1 [4BIPHMPE, 4-biphenyl methyl propargyl ether] |  | 5.74 |
| C#CCOc1ccc(-c2ccccc2)cc1 [4BIPHPE, 4-biphenylpropargyl ether] | 5.81 |  |
| C#CCOc1ccc2c(C)cc(=O)oc2c1 [4M7CPE, 4-methyl-7-coumarinpropargyl ether] | 5.70 |  |
| C#CCOc1ccc2c(C(F)(F)F)cc(=O)oc2c1 [4TFM7CPE, 4-(trifluoromethyl)-7-coumarinpropargyl ether] | 6.15 |  |
| C#CCOc1ccc(-c2cc(=O)c3ccccc3o2)cc1 [4′FPE, 4′-flavonepropargyl ether] | 5.90 |  |
| C#CCOc1ccc(-c2cc(=O)c3ccc4ccccc4c3o2)cc1 [4′αNFPE, α-naphthoflavone-4′-propargyl ether] | 6.59 |  |
| C#CCOc1cccc2oc(-c3ccccc3)cc(=O)c12 [5FPE, 5-flavonepropargyl ether] | 6.42 |  |
| C#CCOc1ccc2oc(-c3ccccc3)cc(=O)c2c1 [6FPE, 6-flavonepropargyl ether] | 6.03 |  |
| C#CCOc1ccc2c(c1)OC(c1ccccc1)CC2=O (stereo not drawn) [7FLAVANONEPE, 7FlavanonePE] | 6.01 |  |
| C#CCOc1ccc2c(=O)cc(-c3ccccc3)oc2c1 [7FPE, 7-flavonepropargyl ether] | 6.41 |  |
